{"source": "patent US20180264088A1", "about": "“USE OF CREATINE KINASE AND DERIVED PEPTIDES THEREOF TO RELIEVE PAIN” (CENTRE NATIONAL DE LA RECHERCHE SCIENTIFIQUE, priority 2015, published 2018)", "key": {"C57Bl/6J mice": {"tested_on": "C57Bl/6J mice", "experiment": "Intrathecal injection, mechanical nociceptive thresholds of healthy mice, von Frey filaments", "format": "in vivo", "conditions": "for analgesia (mechanical nociceptive threshold vs control): right leg, two-ways ANOVA", "description": "(§1) Experiments were performed on adult male C57Bl/6J mice (6 weeks old, Charles River, L'Arbresle, France). Animals were housed in groups of 3, under standard conditions (room temperature: 22° C.; 12/12-hour light-dark cycle) with ad libitum access to food and water. All experiments were conducted according to the recommendations of the European Committee Council Direction of Sep. 22, 2010 (2010/63/EU).\nThe functional properties of peptides P1 (20 nmoles) and P4 (10 nmoles) were evaluated through injections in the spinal cord of 4 groups of 6 mice C57B16/J (intrathecal injection, volume of 5 μl). […] Mice were previously placed under gaseous anesthesia with isoflurane (volatile anesthetic agent) with a minimum alveolar concentration (MAC) of 1.34%. A 27-gauge needle connected to a syringe was inserted between the vertebrae L5 and L6, in the subarachnoid space. Isoflurane induced a general anesthesia with respiratory depression in mice.\n(§2) The mechanical threshold for hind paw withdrawal was determined using Von Frey hairs. Mice were placed in clear plexiglass boxes on an elevated mesh screen. Von Frey filaments (Bioseb, Chaville, France) were applied to the plantar surface of each hind paw in a series of ascending forces (0.4 g-15 g). Filaments were tested 5 times per paw, and the mechanical threshold was defined as 3 or more withdrawals out of the 5 trials. Lithium chloride and naloxone (Sigma-Aldrich, St. Louis, U.S.A.) were diluted in NaCl 0.9% (w/v)."}, "[1]": {"tested_on": "C57Bl/6J neuropathic mice", "experiment": "Intraperitoneal injection, mechanical nociceptive thresholds of neuropathic (cuffed) mice, von Frey filaments", "format": "in vivo", "conditions": "10 nmoles; for effect on mechanical thresholds of Sham animals: Sham mice", "description": "as §1, with “5,” for “3,”\n(§3) All surgeries were done under aseptic conditions and ketamine/xylazine anaesthesia (ketamine: 17 mg/ml, xylazine: 2.5 mg/ml, i.p., 4 ml/kg, i.p.; Centravet, Taden, France). The right sciatic nerve was cuffed with a section of polyethylene tubing (cuff group) as previously described [Mosconi et Kruger, Pain, 64(1): 37-57, 1996] [7].\nas §2, with “trials.” for “trials. Lithium chloride and naloxone (Sigma-Aldrich, St. Louis, U.S.A.) were diluted in NaCl 0.9% (w/v).”"}, "[2]": {"tested_on": "cuffed rats (neuropathic)", "experiment": "Intrathecal injection, cuff neuropathic rat model, calibrated forceps test", "format": "in vivo", "conditions": "10 nmoles", "description": "as §1, with “Wistar at” for “C57Bl/6J mice”, “(2010/63/EU). Procedures were positively evaluated by the regional ethical committee, and experiments were conducted with an official authorization for animal experimentation from the French Department of Agriculture (license 67-116 to P.P.).” for “(2010/63/EU).”\nas §3, with “[7]. Sham-operated mice underwent the same surgical procedure as cuffed animals without implantation of the cuff (sham group).” for “[7].”\nThe functional property of peptide P4 (10 nmoles) was evaluated through injections in the spinal cord of 1 groups of 3 rats (intrathecal injection, volume of 5 μl). The aim was to study the consequences of these injections on mechanic nociceptive threshold of cuffed animals in comparison of the sham group (control), using the calibrated forceps test. Rats were previously placed under gaseous anesthesia with isoflurane (volatile anesthetic agent) with a minimum alveolar concentration (MAC) of 1.34%. A 27-gauge needle connected to a syringe was inserted between the vertebrae L5 and L6, in the subarachnoid space.\nThe mechanical response was evaluated using digital calibrated forceps (Bioseb, Chaville, France) according to company's recommendations, before and 1 to 6 hours after intrathecal injections."}, "[3]": {"experiment": "ELISA on peptide-coated plate: affinity for morphine", "conditions": "ligand 300 μM to 0.1 μM"}, "CK-M": {"target": "CK-M (Homo sapiens, UniProt P06732)", "sequence (P06732 whole entry, species assumed)": "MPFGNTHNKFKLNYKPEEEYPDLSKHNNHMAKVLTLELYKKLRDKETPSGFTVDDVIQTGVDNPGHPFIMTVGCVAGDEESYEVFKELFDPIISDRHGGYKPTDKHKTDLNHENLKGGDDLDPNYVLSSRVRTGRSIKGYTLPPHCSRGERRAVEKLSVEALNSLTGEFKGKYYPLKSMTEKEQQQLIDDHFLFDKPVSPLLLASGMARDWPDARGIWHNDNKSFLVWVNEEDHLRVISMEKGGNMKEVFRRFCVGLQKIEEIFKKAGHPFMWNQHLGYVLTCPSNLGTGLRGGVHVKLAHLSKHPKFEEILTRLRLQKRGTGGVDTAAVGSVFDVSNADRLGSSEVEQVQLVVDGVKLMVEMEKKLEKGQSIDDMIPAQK", "experiment": "Inhibitory effect of morphine on ATP formation by creatine kinase", "format": "biochemical", "conditions": "ratio 3n/1n (FIG. 2)"}, "cuffed mice C57Bl6/J [4]": {"tested_on": "cuffed mice C57Bl6/J", "experiment": "Intrathecal injection of AI-25, mechanical nociceptive threshold of cuffed mice", "format": "in vivo", "conditions": "10 nmoles", "description": "(§4) Experiments and surgeries were performed as previously described.\n(§5) The functional property of peptide AI-25 (10 nmoles) was evaluated through injections in the spinal cord of 8 mice C57B16/J (intrathecal injection, volume 5 μl). The aim was to study the consequences of these injections on mechanical nociceptive threshold of cuffed mice using the calibrated forceps test.\n(§6) The mechanical threshold for hind paw withdrawal was determined using Von Frey filaments as previously described."}, "cuffed mice C57Bl6/J [5]": {"tested_on": "cuffed mice C57Bl6/J", "experiment": "Intrathecal injection of KN-50, mechanical nociceptive threshold of cuffed mice", "format": "in vivo", "conditions": "33 nmoles, vs saline solution", "description": "as §4\nas §5, with “KN-50 (33” for “AI-25 (10”, “nmoles) and NaCl 0.9%” for “nmoles)”, “mice, in comparison of saline solution.” for “mice using the calibrated forceps test.”\nas §6"}, "[6]": {"conditions": "intrathecal, 10 nmoles, healthy mice"}, "[7]": {"conditions": "neuropathic mice, comparison to baseline"}, "[8]": {"conditions": "intrathecal, 20 nmoles, healthy mice"}}}
{"molecule": "peptide P4: peptide consisting of amino acids 184-258 (SEQ ID NO: 3) of the mouse CK-B sequence SEQ ID NO: 1", "values": [{"measurement": "values of von Frey / sensitivity towards mechanical stimulation", "setting": "C57Bl/6J mice; [6]", "value": "close or equal to cut-off"}, {"measurement": "analgesia (mechanical nociceptive threshold vs control)", "setting": "C57Bl/6J mice; [6]", "value": "induced a significant analgesia"}, {"measurement": "values of von Frey / sensitivity towards mechanical stimulation", "setting": "C57Bl/6J mice; intrathecal, 10 nmoles, healthy mice, listed as amino acids 184-258", "value": "almost complete insensitivity"}, {"measurement": "occlusion of analgesic activity by morphine", "setting": "C57Bl/6J mice; peptide 10 nmoles injected in presence of 10 nmoles of morphine", "value": "not observed"}, {"measurement": "effect on mechanical thresholds of Sham animals", "setting": "[1]", "value": "No significant effect"}, {"measurement": "basic mechanical nociceptive thresholds of the contralateral hind legs", "setting": "[1]; neuropathic mice", "value": "do not modify"}, {"measurement": "analgesic effect, ipsilateral paw, at 3 h", "setting": "[1]; [7]", "value": "significant analgesic effect"}, {"measurement": "analgesic effect, ipsilateral paw, at 4 h post injection", "setting": "[1]; [7]", "value": "significant analgesic effect"}, {"measurement": "neuropathic pain, ipsilateral paw mechanical threshold", "setting": "[2]; cuffed rats", "value": "reverses the neuropathic pain"}, {"measurement": "non-cuffed contralateral paw mechanical threshold", "setting": "[2]; cuffed rats", "value": "did not affect"}, {"measurement": "duration of analgesia", "setting": "[2]; cuffed rats, ipsilateral paw", "value": "at least 6 h"}, {"measurement": "neuropathic pain, ipsilateral paw mechanical threshold", "setting": "[2]; cuffed rats, listed as peptide 4", "value": "reversed the neuropathic pain"}, {"measurement": "mechanical threshold of the sham group", "setting": "[2]; sham rats", "value": "did not affect"}, {"measurement": "affinity for morphine", "setting": "[3]", "value": "showed an affinity"}]}
{"molecule": "CN1CC[C@]23c4c5ccc(O)c4O[C@H]2[C@@H](O)C=C[C@H]3[C@H]1C5", "note": "[morphine, reference compound]", "values": [{"measurement": "analgesia on right leg 4 hours after injection", "setting": "C57Bl/6J mice; intrathecal, 10 nmoles, healthy mice, Holm-Sidak", "value": "significant analgesia"}, {"measurement": "analgesia (mechanical nociceptive threshold vs control)", "setting": "C57Bl/6J mice; [6]", "value": "induced a significant analgesia"}, {"measurement": "effect on mechanical thresholds of Sham animals", "setting": "[1]", "value": "No significant effect"}, {"measurement": "analgesic effect, ipsilateral paw, at 3 h", "setting": "[1]; [7]", "value": "significant analgesic effect"}, {"measurement": "inhibition of enzymatic activity of CK (production of ATP from phosphocreatine)", "setting": "CK-M", "value": "~18", "unit": "%"}]}
{"molecule": "peptide AI-25: peptide derived from P4, amino acids 214-238 (SEQ ID NO: 4) of mouse creatine kinase B", "values": [{"measurement": "neuropathic pain, ipsilateral paw mechanical threshold", "setting": "cuffed mice C57Bl6/J [4]", "value": "reversed the neuropathic pain"}, {"measurement": "non-cuffed contralateral paw mechanical threshold", "setting": "cuffed mice C57Bl6/J [4]", "value": "did not significantly affect"}, {"measurement": "neuropathic pain, ipsilateral paw mechanical threshold", "setting": "cuffed mice C57Bl6/J [4]; listed as amino acids 214-238", "value": "present analgesic activity"}]}
{"molecule": "peptide KN-50: peptide derived from P4, amino acids 196-246 (SEQ ID NO: 5) of mouse creatine kinase B", "values": [{"measurement": "neuropathic pain, ipsilateral paw mechanical threshold", "setting": "cuffed mice C57Bl6/J [5]", "value": "reversed the neuropathic pain"}, {"measurement": "non cuffed contralateral paw mechanical threshold", "setting": "cuffed mice C57Bl6/J [5]", "value": "did not affect"}, {"measurement": "neuropathic pain, ipsilateral paw mechanical threshold", "setting": "cuffed mice C57Bl6/J [5]; listed as amino acids 196-246", "value": "present analgesic activity"}]}
{"molecule": "peptide P1: peptide consisting of amino acids 1-75 (SEQ ID NO: 2) from the mouse CK-B sequence SEQ ID NO: 1", "values": [{"measurement": "values of von Frey / sensitivity towards mechanical stimulation", "setting": "C57Bl/6J mice; [8]", "value": "close or equal to cut-off"}, {"measurement": "analgesia (mechanical nociceptive threshold vs control)", "setting": "C57Bl/6J mice; [8]", "value": "induced a significant analgesia"}, {"measurement": "values of von Frey / sensitivity towards mechanical stimulation", "setting": "C57Bl/6J mice; intrathecal, 20 nmoles, healthy mice, listed as amino acids 1-75", "value": "almost complete insensitivity"}, {"measurement": "occlusion of analgesic activity by morphine", "setting": "C57Bl/6J mice; peptide 20 nmoles injected in presence of 10 nmoles of morphine", "value": "occlusion of analgesic activity"}, {"measurement": "affinity for morphine", "setting": "[3]", "value": "showed an affinity"}]}
